These are literature values, as cited in US20190030061A1, “COBALAMIN COMPOSITIONS AND USE THEREOF FOR IMPROVING COGNITIVE FUNCTION” (NOVA SOUTHEASTERN UNIVERSITY, priority 2016, published 2019).

The subject of the series is neuronal cells.

As to IGF1: insulin-like growth factor 1, the GSH levels result is given as “increased” and the cysteine uptake result is “stimulates”.
Take Amyloid Beta: the GSH levels result is given as “decrease” and the cysteine uptake entry was “decrease”.
